Several values for one entry are separate records, joined by “and”; a condition that tells them apart may be missing. Equal entries are not always repeated. Activity calls are given as the source filed them.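 How the source made its calls: active means compounds giving half or more protection of infected cells from virus-caused growth loss, again on retest; inactive means the rest.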
System: CEM cells HIV-1 protection, formazan growth assay
Assay: NCI AIDS Antiviral Assay
Settings: for IC50: measured here: growth of uninfected CEM cells
Outline: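 Soluble formazan readout of cell growth; CEM cells ± HIV-1; 5 drug concs. ≥50% protection → retest; ≥50% again = moderately active; reproducible 100% = confirmed active.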

| Structure (SMILES) | EC50 [µM] | IC50 | outcome |
| --- | --- | --- | --- |
| O=C(NN=C1CCN(Cc2ccccc2)CC1)C(O)(c1ccccc1)c1ccccc1 | > 200 | > 200 µM | – |
| O=[N+]([O-])c1ccccc1C1N2CCCCC2[C@@H]2c3[nH]c4ccccc4c3CCN12 (some centres not stated) | > 18.6 | > 18.6 µM | – |
| CC1(C(=O)O)CCC(C(=O)O)C(C)(C)O1 (configuration not stated) | > 200 | > 200 µM | – |
| O=[N+]([O-])C1=C(c2ccccc2)SC=C(c2ccccc2)S1 | > 200 | 9.77 µM | – |
| O=S1(=O)CCCCO1 | – | – | inactive |
| Cc1c(=O)n(O)c2ccccc2[n+]1[O-] | > 200 | > 200 µM | – |
| CC(C)=C1C2CCC1C(CO)C2CO (configuration not stated) | > 457 | > 457 µM | – |
| CN(C)c1ccc(/C=C/c2ccnc3c2ccc2ccccc23)cc1 | > 22.4 | 13.5 µM | – |
| O=C1CN(C=C(C(=O)c2ccccc2)C(=O)c2ccccc2)C(=S)N1 | – | – | inactive |
| N#CCCN(CCC#N)c1ccc(/C=C(/NC(=O)c2cc([N+](=O)[O-])ccc2Cl)C(=O)N=[N+]=[N-])cc1 | > 20.4 | > 20.4 µM | – |
| C/C(Cl)=N\OC(=O)Nc1ccccc1C(F)(F)F | > 200 | 33.1 µM | – |
| CC1(C)CCc2c(cc3c(c2O)CCC(C)(C)O3)O1 | > 200 | > 200 µM | – |
| COc1ccc(-c2c(-c3ccccc3)c(C)nc3[nH]c(=S)[nH]c(=S)c23)cc1OC | > 200 | 43.7 µM | – |
| COc1ccc(/C(C#N)=C\c2ccc(N(C)C)cc2)cc1 | > 100 | 1.23 µM | – |
| O=S(O)CCCCSSCCCCS(=O)(O)=S | – | – | inactive |
| Nc1ccc2c(SCC(=O)Nc3ccccc3-c3ccccc3NC(=O)CSc3c4ccccc4nc4cc(N)ccc34)c3ccccc3nc2c1 | > 7.24 | > 7.24 µM | – |
| Cc1cc(C[C@H]2O[C@@H]3OC(C)(C)O[C@@H]3[C@H]3OC(C)(C)O[C@H]32)c2ccccc2n1 | > 200 | 64.6 µM | – |
| COc1ccc(-c2nc(N)c(C#N)c3c2CCS(=O)(=O)c2ccc(C)cc2-3)cc1OC | > 200 | 11.2 µM | – |
| N#Cc1n[nH]n(-c2ccc(Br)cc2)c1=O | > 200 | > 200 µM | – |
| CC(=O)N=c1ccc2nc(N)nn(O)c-2c1 | > 200 | > 200 µM | – |
| CC1CN=C(Nc2ccccc2)S1 (configuration not stated) | > 200 | > 200 µM | – |
| COc1ccc2oc(OC)c(CC=C(C)C)c(=O)c2c1C | > 200 | 141 µM | – |
| CC[P+](C)(Cc1ccccc1)c1ccccc1 (configuration not stated) | 0.0631 | 81.3 µM | – |

| Structure (SMILES) | EC50 [µM] | IC50 | outcome |
| --- | --- | --- | --- |
| Nc1nc2c(C(=O)O)c3ccc([N+](=O)[O-])cc3c(=O)n2c2ccccc12 | > 200 | 15.8 µM | – |
| COC(=O)Cc1ccc2c(cnn2-c2ccccc2)c1OC | > 200 | 89.1 µM | – |
| Cc1nc2ccccc2c(=O)n1NC(=S)NC1CCCCC1 | > 4.57 | > 4.57 µM | – |
| Nc1nc(Cl)cc(OCC2(CO)CC(OCc3ccccc3)C2)n1 (configuration not stated) | > 200 | 41.7 µM | – |
| S=c1[nH]c(=S)c2cc(Sc3ccc4[nH]c(=S)[nH]c(=S)c4c3)ccc2[nH]1 | > 200 | > 200 µM | – |
| C=C1C2CCC3(C4C[C@H]5C6(CCC[C@@]5(C)[C@H]5OCCN5[C@H]6O4)[C@@H]3C2)C1OC(C)=O (some centres not stated) | > 12.9 | > 12.9 µM | – |
| Cc1cn([C@H]2C[C@@H]3[C@@H](COC(CCc4ccccc4)N3O)O2)c(=O)[nH]c1=O (some centres not stated) | 95.5 | 151 µM | – |
| CC1=NN(C(=O)c2cc(Cl)cc([N+](=O)[O-])c2)C(=O)C1N=Nc1ccccc1C(=O)O (configuration not stated) | – | – | inactive |
| COc1ccccc1-n1c(C)nc2ccccc2c1=O | > 186 | > 186 µM | – |
| COC(=O)C1CCCC2(C1)OCCO2 (configuration not stated) | > 251 | > 251 µM | – |
| COC(=O)C1=COC2OC3/C(=C\c4ccc(O)c(OC)c4)C(=O)OC34C=CC1C24 (configuration not stated) | > 200 | 24 µM | – |
| COC(=O)C1(C)OS(=O)(=O)c2ccccc21 (configuration not stated) | > 537 | > 537 µM | – |
| Cc1cc(Cl)cc2c1NC(=O)C2(O)CC(=O)c1ccc(F)cc1 (configuration not stated) | > 15.5 | > 15.5 µM | – |
| O=c1ccc2cc([N+](=O)[O-])ccc2o1 | > 646 | 363 µM | – |
| CC1SC(=O)SC1C (configuration not stated) | > 1700 | > 1700 µM | – |
| COc1cc(C)c(/C=C/C(=O)N2C(=O)OC[C@@H]2c2ccccc2)c(C)c1 | > 200 | 26.9 µM | – |
| CN1CCN(C(=O)c2cccc3cccc(C(=O)O)c23)CC1 | > 832 | 724 µM | – |
| CC(=O)Oc1cc(C)cc2ccc(-c3ccc4cc(C)cc(OC(C)=O)c4c3OC(C)=O)c(OC(C)=O)c12 | > 200 | 28.8 µM | – |
| C[C@@H]1CC/C=C(/[Si](C)(C)C)C[C@H](C)O1 | > 1170 | > 1170 µM | – |
| COC(=O)c1c2c(c(-c3ccccc3)c3c1-c1nc(Cl)ccc1CC3)CCc1ccc(Cl)nc1-2 | > 20.4 | > 20.4 µM | – |
| COC(=O)C1=C(C)C(=O)[C@]23C(CCCC[C@H]12)C(=O)[C@H](C(=O)OC)C3C (some centres not stated) | > 200 | > 200 µM | – |
| c1ccc(Cc2cccc3cc(-c4ccc(-c5ccccc5)cc4)[nH]c23)cc1 | > 200 | 166 µM | – |
| Cc1ccc(NC(=S)SCCC(=O)O)cc1 | – | – | inactive |

| Structure (SMILES) | EC50 [µM] | IC50 | outcome |
| --- | --- | --- | --- |
| CC(C)(C)OC(=O)C(C#N)C(=O)c1ccc(C(=O)O)[nH]1 (configuration not stated) | > 200 | 23.4 µM | – |
| C=C[C@]1(C)CC(=O)C(C(C)C=O)[C@]12C(=O)Oc1cccc(C)c1C2=O (some centres not stated) | > 200 | 13.5 µM | – |
| CCOP(=O)(Cc1cc(C(C)(C)C)c(O)c(C(C)(C)C)c1)OCC | > 100 | > 100 µM | – |
| CCN(CC)CCSc1c2ccccc2nc2cc(NCC(=O)Nc3ccccc3-c3ccccc3NC(=O)CNc3ccc4c(SCCN(CC)CC)c5ccccc5nc4c3)ccc12 | > 33.1 | > 33.1 µM | – |
| CCN(c1ccc(Br)cc1)c1c(Br)c(=O)nc2ccccn12 | > 525 | 97.7 µM | – |
| O=c1c2ccc(Cl)cc2nc2n1OCC2 | > 132 | > 132 µM | – |
| Cn1c(=O)c2[nH]c(/N=N\n3ccc4ccccc43)nc2n(C)c1=O | > 200 | 191 µM | – |
| CC1(C)C2CCC13CS(=O)(=O)N1O[C@]13C(=O)O2 (some centres not stated) | > 195 | > 195 µM | – |
| COC(=O)C1(C(=O)OC)Cc2ccc(C)cc2C2=C1C(=O)c1ccccc1C2=O | > 200 | 5.13 µM | – |
| CCOC(=O)N1[C@@H]2CCC[C@@H]2C(=O)[C@@H]2CCC[C@@H]21 | > 200 | > 200 µM | – |
| NC(=S)/N=C/C1=C(O)CCCC1=O | > 200 | > 200 µM | – |
| O=C(O)CN(CCN(CC(=O)O)CC(=O)O)CC(=O)O.[Cu+2].[Na+] | > 200 | 8.91 µM | – |
| CCOC(=O)N(C)C(=C(F)F)C(F)(F)F | > 200 | > 200 µM | – |
| CCN(CC)CC(=O)N(CC)c1ccc(C)c(Cl)c1 | > 200 | > 200 µM | – |
| CCc1ccc(/C(C#N)=C/c2ccc(OC)cc2)cc1 | > 200 | 3.98 µM | – |
| Nc1ccc(S(=O)(=O)Cc2ccc(C(=O)O)cc2)cc1 | > 324 | > 324 µM | – |
| O=C1CSC(c2ccccc2)N1c1ccc(-c2ccc(-n3c(-c4ccccc4)nc4ccccc4c3=O)cc2)cc1 (configuration not stated) | > 200 | 44.7 µM | – |
| Cn1cc2c(n1)c(N/N=C/c1ccccc1)nn1nnnc21 | > 89.1 | > 89.1 µM | – |
| Nc1ccc(S(=O)(=O)Nc2nc3ccccc3nc2N2CCCCCC2)cc1 | > 200 | 33.1 µM | – |
| CN(C)C(=S)/N=c1\ss/c(=N\S(=O)(=O)c2ccccc2)n1N(C)C | – | – | inactive |
| Cc1cn(C2OCC(CO)C2N=[N+]=[N-])c(=O)[nH]c1=O (configuration not stated) | > 200 | > 200 µM | – |
| C[N+](C)(C)CC1CCCC/C1=N\O (configuration not stated) | > 794 | > 794 µM | – |
| COc1cc(/C=C\c2ccc(SC)cc2)cc(OC)c1OC | > 42.7 | 0.0724 µM | – |

| Structure (SMILES) | EC50 [µM] | IC50 | outcome |
| --- | --- | --- | --- |
| O=C(O)c1ccc(NC(=O)c2ccccc2[Se][Se]c2ccccc2C(=O)Nc2ccc(C(=O)O)cc2)cc1 | 13.8 | 18.6 µM | – |
| COC1/C=C/OC2(C)Oc3c(C)c(O)c4c(O)c(c(C=NN5C(C)CN(Cc6ccc(Cl)cc6)CC5C)c(O)c4c3C2=O)NC(=O)/C(C)=C/C=C/C(C)C(O)C(C)C(O)C(C)C(OC(C)=O)C1C (configuration not stated) | > 200 | 6.17 µM | – |
| O=S1(=O)O[C@H]2CCCC[C@H]2O1 | > 40.7 | > 40.7 µM | – |
| O=[N+]([O-])c1ccc(CSSCc2ccc([N+](=O)[O-])cc2)cc1 | > 200 | 17.8 µM | – |
| COC1=CC(=O)C2C(C1=O)[C@@H]1c3ccccc3OC(C)(C)[C@H]21 (some centres not stated) | > 166 | 16.2 µM | – |
| Cn1cc(C(N)=O)ccc1=N | > 200 | > 200 µM | – |
| COc1ccc2c3c(coc13)C(CCC(=O)O)CC2 (configuration not stated) | – | – | inactive |
| CC1=C2CCCC2C/C(=N/Nc2ccc([N+](=O)[O-])cc2[N+](=O)[O-])CC1 (configuration not stated) | – | – | inactive |
| CCOC(=O)/C(=C\c1cccs1)P(=O)(OCC)OCC | > 794 | 41.7 µM | – |
| CC(=S)N(c1ccccc1)c1ccccc1 | > 200 | 158 µM | – |
| c1ccc(CSC(SCc2ccccc2)(c2ccccc2)c2ccccc2)cc1 | > 200 | 102 µM and > 100 µM | – |
| S=c1[nH]c(=S)c2[nH]cnc2[nH]1 | > 200 | 85.1 µM | – |
| N#C/C=C(/NC(=O)Nc1ccccc1)N1CCCC1 | > 200 | > 200 µM | – |
| COC[C@@H](N=CN1CCc2cc(OC)ccc2C1)C(C)C | > 871 | > 871 µM | – |
| CCCCCCCCCCCC(=O)CC(=O)c1c(O)cccc1O | > 15.5 | > 15.5 µM | – |
| CCN(CC)CC(=O)Nc1cc(C)ccc1Cl | > 200 | > 200 µM | – |
| O=C1c2c(F)c(F)c(F)c(F)c2SC2=Nc3cccc4cccc(c34)N12 | > 200 | 1 µM | – |
| O=C(NC1C(=O)NNC1c1cccc([N+](=O)[O-])c1)c1ccccc1 (configuration not stated) | > 288 | > 288 µM | – |
| c1ccc(NNC2=NCCN2)cc1 | > 200 | 55 µM | – |
| N=C1/C(=C/c2ccc(F)cc2)C(=O)N=C2SC=NN12 | > 200 | > 200 µM | – |
| Clc1ccnc2c1ccc1c(Cl)ccnc12 | > 75.9 | 13.8 µM | – |
